Patent publication US20070134221A1, “Stabilizing peptides” (priority 2003, published 2007)
Like-named read-outs stand apart in the source and are kept apart here.

What was measured:
[1] = Circular dichroism spectroscopy; assay type: physicochemical; conditions: 10 μM peptide, 50 mM Tris-HCl (pH 8.0), 10 mM NaCl, 4° C.
Description: CD measurements of the peptides were carried out on an Aviv 62 DS circular dichroism spectrometer (Aviv Biomedical, Lakewood, N.J.). Peptides were dissolved in 50 mM Tris-HCl (pH 8.0) and 10 mM NaCl with a total peptide concentration of 10 μM. The wavelength dependence of molar ellipticity, [θ], was monitored at 4° C. as the average of five scans, using a five-second integration time at 1.0 nm wavelength increments. Spectra were baseline-corrected against the cuvette with buffer alone. […] Thermal stability was determined by monitoring the change in CD signal at 222 nm as a function of temperature, and thermal melts were performed in two-degree intervals with a two-minute equilibration at the desired temperature, and an integration time of 30 s. Reversibility was checked by repeated scans.

HIV-1 94ZW103 = assay type: cell-based
Description: (§1) PBMC Infectivity Assay. PBMC were isolated from healthy blood donors by Ficoll-Hypaque centrifugation and then stimulated for 2-3 days with phytohemagglutinin (5 μg/ml) and interleukin-2 (100 U/ml). The inhibition assay was performed essentially as described previously (Trkola, A., T. Ketas, V. N. KewalRamani, F. Endorf, J. M. Binley, H. Katinger, J. Robinson, D. R. Littman, and J. P. Moore. 1998. Neutralization sensitivity of human immunodeficiency virus type 1 primary isolates to antibodies and CD4-based reagents is independent of co-receptor usage. J. Virol. 72:1876-1885; Trkola, A., W. A. Paxton, S. P. Monard, J. A. Hoxie, M. A. Siani, D. A. Thompson, L. Wu, C. R. Mackay, R. Horuk, and J. P. Moore. 1998. Genetic subtype-independent inhibition of human immunodeficiency virus type 1 replication by CC and CXC chemokines. J. Virol. 72:396-404).
(§2) Briefly, the virus inoculum was adjusted to 400-1,000 TCID50/ml in assay medium (RPMI 1640, 10% FCS, 100 U of interleukin-2 per ml, glutamine, and peptides), and 50 μl aliquots were incubated with serial dilutions of the peptide inhibitors (50 μl) for 1 h at 37° C. […] RBMC (4×10^5 in 100 μl of medium) were then added. The final concentration of virus in the cultures was 20-50 TCID50/well, corresponding to 100-250 TCID50/ml. Peptides, virus, and cells were then incubated for 5-7 days at 37° C., and the extent of viral replication was determined by p24 antigen ELISA of the culture supernatants. The viral inocula in 50% tissue culture infectious doses (TCID50) were 400-1000/ml.

HIV-1 BZ162 = assay type: cell-based; conditions: human PBMC, 5-7 days, p24 ELISA; second line of the isolate = second separate assay; read-out: Antiviral activity IC50, HIV-1 BZ162
Description: as §1, §2

HIV-1 DJ258 = assay type: cell-based; conditions: human PBMC, 5-7 days, p24 ELISA; second line of the isolate = second separate assay; read-out: Antiviral activity IC50, HIV-1 DJ258
Description: as §1, §2

HIV-1 JFRL = assay type: cell-based
Description: as §1, §2

HIV-1 CM.235 = assay type: cell-based; conditions: human PBMC, 5-7 days, p24 ELISA; second line of the isolate = second separate assay; read-out: Antiviral activity IC50, HIV-1 CM.235
Description: as §1, §2

HIV-1 NL4-3 = assay type: cell-based
Description: as §1, §2

HIV-1 Case C 7/86 = assay type: cell-based; conditions: human PBMC, 5-7 days, p24 ELISA; second line of the isolate = second separate assay; read-out: Antiviral activity IC50, HIV-1 Case C 7/86
Description: as §1, §2

HIV-1 UG270 = assay type: cell-based
Description: as §1, §2

[2] = human PBMC, 5-7 days, p24 ELISA, second line of the isolate = second separate assay, read-out: Antiviral activity IC50, HIV-1 94ZW103
[3] = human PBMC, 5-7 days, p24 ELISA, second line of the isolate = second separate assay, read-out: Antiviral activity IC50, HIV-1 JFRL
[4] = human PBMC, 5-7 days, p24 ELISA, second line of the isolate = second separate assay, read-out: Antiviral activity IC50, HIV-1 NL4-3
[5] = human PBMC, 5-7 days, p24 ELISA, second line of the isolate = second separate assay, read-out: Antiviral activity IC50, HIV-1 UG270

Row | Compound | Structure in solution by circular dichroism [1] | IC50 (HIV-1 94ZW103; [2]) [nM] | IC50 (HIV-1 BZ162) [nM] | IC50 (HIV-1 DJ258) [nM] | IC50 (HIV-1 JFRL; [3]) [nM] | IC50 (HIV-1 CM.235) [nM] | IC50 (HIV-1 NL4-3; [4]) [nM] | IC50 (HIV-1 Case C 7/86) [nM] | IC50 (HIV-1 UG270; [5]) [nM] | IC50 (HIV-1 94ZW103; 94ZW103) [nM] | IC50 (HIV-1 JFRL; JFRL) [nM] | IC50 (HIV-1 NL4-3; NL4-3) [nM] | IC50 (HIV-1 UG270; UG270) [nM]
1 | CC[C@H](C)[C@H](NC(=O)[C@H](CCCCN)NC(=O)[C@@H](NC(=O)[C@H](CC(N)=O)NC(=O)[C@H](Cc1ccccc1)NC(=O)[C@H](Cc1c[nH]c2ccccc12)NC(=O)[C@H](CC(N)=O)NC(=O)[C@H](Cc1c[nH]c2ccccc12)NC(=O)[C@H](CC(C)C)NC(=O)[C@H](CO)NC(=O)[C@H](C)NC(=O)[C@H](Cc1c[nH]c2ccccc12)NC(=O)[C@H](CCCCN)NC(=O)[C@H](CC(=O)O)NC(=O)[C@H](CC(C)C)NC(=O)[C@H](CCC(=O)O)NC(=O)[C@H](CC(C)C)NC(=O)[C@H](CC(C)C)NC(=O)[C@H](CCC(=O)O)NC(=O)[C@H](CCC(N)=O)NC(=O)[C@H](CCC(=O)O)NC(=O)[C@H](CC(N)=O)NC(=O)[C@H](CCCCN)NC(=O)[C@H](CCC(=O)O)NC(=O)[C@H](CCC(N)=O)NC(=O)[C@H](CC(C)C)NC(=O)[C@H](CC(N)=O)NC(=O)[C@H](CCC(N)=O)NC(=O)[C@H](CO)NC(=O)[C@H](CCC(=O)O)NC(=O)[C@H](CCC(=O)O)NC(=O)[C@@H](NC(=O)[C@H](CC(C)C)NC(=O)[C@H](CO)NC(=O)[C@H](Cc1c[nH]cn1)NC(=O)[C@@H](NC(=O)[C@H](CC(C)C)NC(=O)[C@H](CO)NC(=O)[C@@H](NC(=O)[C@H](Cc1ccc(O)cc1)NC(=O)[C@H](CC(N)=O)NC(=O)[C@H](CC(N)=O)NC(=O)[C@@H](NC(=O)[C@H](CCC(=O)O)NC(=O)[C@H](CCCNC(=N)N)NC(=O)[C@H](CC(=O)O)NC(=O)[C@H](Cc1c[nH]c2ccccc12)NC(=O)[C@H](CCC(=O)O)NC(=O)[C@H](CCSC)NC(=O)[C@H](Cc1c[nH]c2ccccc12)NC(=O)[C@@H](NC(=O)[C@@H](NC(=O)[C@H](Cc1c[nH]cn1)NC(=O)[C@@H](N)CC(N)=O)[C@@H](C)O)[C@@H](C)O)[C@@H](C)CC)[C@@H](C)O)[C@@H](C)CC)[C@@H](C)CC)[C@@H](C)CC)C(=O)N[C@@H](CCCCN)C(=O)O [Peptide C52F, NHTTWMEWDREINNYTSLIHSLIEESQNLQEKNEQELLELDKWASLWNWFNI-KIK] | forms an α-helical structure in solution | 4 | 2 | 9 | 5 | 11 | 23 | 49 | 68 |  |  |  | 
2 | CC[C@H](C)[C@H](NC(=O)[C@H](CCCCN)NC(=O)[C@@H](NC(=O)[C@H](CC(N)=O)NC(=O)[C@H](Cc1ccccc1)NC(=O)[C@H](Cc1c[nH]c2ccccc12)NC(=O)[C@H](CC(N)=O)NC(=O)[C@H](Cc1c[nH]c2ccccc12)NC(=O)[C@H](CC(C)C)NC(=O)[C@H](CO)NC(=O)[C@H](C)NC(=O)[C@H](Cc1c[nH]c2ccccc12)NC(=O)[C@H](CCCCN)NC(=O)[C@H](CC(=O)O)NC(=O)[C@H](CC(C)C)NC(=O)[C@H](CCC(=O)O)NC(=O)[C@H](Cc1ccccc1)NC(=O)[C@H](CC(C)C)NC(=O)[C@H](CCC(=O)O)NC(=O)[C@H](CCC(N)=O)NC(=O)[C@H](CCC(=O)O)NC(=O)[C@H](C)NC(=O)[C@H](CCCCN)NC(=O)[C@H](CCC(=O)O)NC(=O)[C@H](CCC(N)=O)NC(=O)[C@H](CC(C)C)NC(=O)[C@H](CC(N)=O)NC(=O)[C@H](CCC(N)=O)NC(=O)[C@H](CO)NC(=O)[C@H](CCC(=O)O)NC(=O)[C@H](CCC(=O)O)NC(=O)[C@H](Cc1ccccc1)NC(=O)[C@H](CC(C)C)NC(=O)[C@H](CO)NC(=O)[C@H](Cc1c[nH]cn1)NC(=O)[C@@H](NC(=O)[C@H](CC(C)C)NC(=O)[C@H](CO)NC(=O)[C@@H](NC(=O)[C@H](Cc1ccc(O)cc1)NC(=O)[C@H](CC(N)=O)NC(=O)[C@H](CC(N)=O)NC(=O)[C@@H](NC(=O)[C@H](CCC(=O)O)NC(=O)[C@H](CCCNC(=N)N)NC(=O)[C@H](CC(=O)O)NC(=O)[C@H](Cc1c[nH]c2ccccc12)NC(=O)[C@H](CCC(=O)O)NC(=O)[C@H](CCSC)NC(=O)[C@H](Cc1c[nH]c2ccccc12)NC(=O)[C@@H](NC(=O)[C@@H](NC(=O)[C@H](Cc1c[nH]cn1)NC(=O)[C@@H](N)CC(N)=O)[C@@H](C)O)[C@@H](C)O)[C@@H](C)CC)[C@@H](C)O)[C@@H](C)CC)[C@@H](C)CC)C(=O)N[C@@H](CCCCN)C(=O)O [Peptide C52L, NHTTWMEWDREINNYTSLIHSLFEESQNLQEKAEQELFELDKWASLWNWFNI-KIK] | forms an α-helical structure in solution | 3 | 3 | 11 | 6 | 12 | 20 | 17 | 61 |  |  |  | 
3 | Enfuvirtide |  |  |  |  |  |  |  |  |  | 18 | 10 | 44 | 139
